This passage reports IC50 results from patent US9493446B2, “Orexin receptor antagonists which are [ortho bi-(hetero-)aryl]-[2-(meta bi-(hetero-)aryl)-pyrrolidin-1-yl]-methanone derivatives” (Actelion Pharmaceuticals Ltd, priority 2012, dated 2016).

Like-named read-outs stand apart in the source and are kept apart here.

One assay has as its target human orexin-2 receptor (Homo sapiens (Human), UniProt O43614). Kind of assay: Intracellular calcium measurement (FLIPR), CHO cells expressing human orexin-2 receptor, 3 nM orexin-A. Type of assay: cell-based. The note with it: read-out: IC50 OX2. The protocol:
(§1) In Vitro Assay: Intracellular Calcium Measurements:
(§2) Chinese hamster ovary (CHO) cells expressing the human orexin-1 receptor and the human orexin-2 receptor, respectively, are grown in culture medium (Ham F-12 with L-Glutamine) containing 300 μg/mL G418, 100 U/mL penicillin, 100 μg/mL streptomycin and 10% heat inactivated fetal calf serum (FCS). The cells are seeded at 20,000 cells/well into 384-well black clear bottom sterile plates (Greiner). The seeded plates are incubated overnight at 37° C. in 5% CO2.
(§3) Human orexin-A as an agonist is prepared as 1 mM stock solution in MeOH: water (1:1), diluted in HBSS containing 0.1% bovine serum albumin (BSA), NaHCO3: 0.375 g/L and 20 mM HEPES for use in the assay at a final concentration of 3 nM.
(§4) Antagonists are prepared as 10 mM stock solution in DMSO, then diluted in 384-well plates using DMSO followed by a transfer of the dilutions into in HBSS containing 0.1% bovine serum albumin (BSA), NaHCO3: 0.375 g/L and 20 mM HEPES. On the day of the assay, 50 μL of staining buffer (HBSS containing 1% FCS, 20 mM HEPES, NaHCO3: 0.375 g/L, 5 mM probenecid (Sigma) and 3 μM of the fluorescent calcium indicator fluo-4 AM (1 mM stock solution in DMSO, containing 10% pluronic) is added to each well. The 384-well cell-plates are incubated for 50 min at 37° C. in 5% CO2 followed by equilibration at rt for 30 min before measurement.
(§5) Within the Fluorescent Imaging Plate Reader (FLIPR Tetra, Molecular Devices), antagonists are added to the plate in a volume of 10 μL/well, incubated for 120 min and finally 10 μL/well of agonist is added. Fluorescence is measured for each well at 1 second intervals, and the height of each fluorescence peak is compared to the height of the fluorescence peak induced by 3 nM orexin-A with vehicle in place of antagonist. […] Optimized conditions were achieved by adjustment of pipetting speed and cell splitting regime. The calculated IC50 values may fluctuate depending on the daily cellular assay performance. Fluctuations of this kind are known to those skilled in the art.
(Calcium assays in cells follow changes in intracellular calcium, usually with a dye or a luminescent sensor.)

For the next assay, the target named is orexin-1 (Homo sapiens (Human), UniProt O43613). The assay can be described thus: Intracellular calcium measurement (FLIPR), CHO cells expressing human orexin-1 receptor, 3 nM orexin-A. It is filed as cell-based. The note with it: read-out: IC50 OX1. The protocol: as §1, §2, §3, §4, §5
Sequence of orexin-1 (O43613 whole entry): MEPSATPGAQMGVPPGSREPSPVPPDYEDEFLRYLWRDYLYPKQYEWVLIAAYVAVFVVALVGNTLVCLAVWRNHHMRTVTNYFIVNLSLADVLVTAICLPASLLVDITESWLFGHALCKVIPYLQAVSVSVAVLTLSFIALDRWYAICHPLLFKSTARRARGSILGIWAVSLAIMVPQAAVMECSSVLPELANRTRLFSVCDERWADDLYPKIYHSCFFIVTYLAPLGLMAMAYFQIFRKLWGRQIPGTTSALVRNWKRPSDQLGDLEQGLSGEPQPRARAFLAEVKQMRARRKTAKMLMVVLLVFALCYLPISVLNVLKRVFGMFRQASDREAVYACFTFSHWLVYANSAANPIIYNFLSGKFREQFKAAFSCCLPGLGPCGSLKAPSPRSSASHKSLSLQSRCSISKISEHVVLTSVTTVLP
Setting [1] is: CHO cells expressing human orexin-2 receptor, FLIPR, 3 nM orexin-A, geometric mean if determined several times.
[2] abbreviates: CHO cells expressing human orexin-1 receptor, FLIPR, 3 nM orexin-A, geometric mean if determined several times.

Sequence of human orexin-2 receptor (O43614 whole entry): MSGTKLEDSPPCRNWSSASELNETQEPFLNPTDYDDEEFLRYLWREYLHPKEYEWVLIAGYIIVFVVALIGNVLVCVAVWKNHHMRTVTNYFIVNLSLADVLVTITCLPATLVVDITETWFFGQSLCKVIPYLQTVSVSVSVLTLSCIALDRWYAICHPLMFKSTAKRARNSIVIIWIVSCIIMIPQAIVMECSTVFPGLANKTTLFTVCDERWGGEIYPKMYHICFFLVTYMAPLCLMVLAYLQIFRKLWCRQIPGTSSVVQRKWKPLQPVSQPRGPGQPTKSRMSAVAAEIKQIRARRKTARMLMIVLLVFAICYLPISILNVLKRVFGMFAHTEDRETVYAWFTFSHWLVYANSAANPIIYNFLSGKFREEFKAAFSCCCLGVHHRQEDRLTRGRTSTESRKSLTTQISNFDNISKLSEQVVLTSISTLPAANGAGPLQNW

Turning to `Cc1ccc(-n2nccn2)c(C(=O)N2CCC[C@H]2c2nc(-c3c[nH]c4ccccc34)no2)c1` [compound 15, {(S)-2-[3-(1H-Indol-3-yl)-[1,2,4]oxadiazol-5-yl]-pyrrolidin-1-yl}-(5-methyl-2-[1,2,3]triazol-2-yl-phenyl)-methanone], the IC50 at human orexin-2 receptor (setting [1]) is 8 nM; at orexin-1 (setting [2]), 21 nM.
For `Cc1ccc(-n2nccn2)c(C(=O)N2CCC[C@H]2c2nc(-c3ccccc3C)no2)c1` [compound 16, (5-Methyl-2-[1,2,3]triazol-2-yl-phenyl)-[(S)-2-(3-o-tolyl-[1,2,4]oxadiazol-5-yl)-pyrrolidin-1-yl]-methanone], in that order: 16 nM and 128 nM.
For `Cc1ccc(-n2nccn2)c(C(=O)N2CCC[C@H]2c2nc(-c3ccccc3OC(F)(F)F)no2)c1` [compound 17, (5-Methyl-2-[1,2,3]triazol-2-yl-phenyl)-{(S)-2-[3-(2-trifluoromethoxy-phenyl)-[1,2,4]oxadiazol-5-yl]-pyrrolidin-1-yl}-methanone], in that order: 5 nM and 8 nM.
As to `Cc1ccc(-n2nccn2)c(C(=O)N2CCC[C@H]2c2nc(-c3cccc(Cl)c3)no2)c1` [compound 18], the IC50 on human orexin-2 receptor (setting [1]) was determined as 32 nM; on orexin-1 it was 91 nM.
Consider `Cc1ccc(-n2nccn2)c(C(=O)N2CCC[C@H]2c2nc(-c3ccc4c(c3)OC(F)(F)O4)no2)c1` [compound 19, {(S)-2-[3-(2,2-Difluoro-benzo[1,3]dioxol-5-yl)-[1,2,4]oxadiazol-5-yl]-pyrrolidin-1-yl}-(5-methyl-2-[1,2,3]triazol-2-yl-phenyl)-methanone], for which the half-inhibitory concentration (IC50) is 652 nM on human orexin-2 receptor (setting [1]) and 1860 nM on orexin-1 (setting [2]).
For `Cc1ccc(-n2nccn2)c(C(=O)N2CCC[C@H]2c2nc(-c3ccc(F)c(F)c3)no2)c1` [compound 20, {(S)-2-[3-(3,4-Difluoro-phenyl)-[1,2,4]oxadiazol-5-yl]-pyrrolidin-1-yl}-(5-methyl-2-[1,2,3]triazol-2-yl-phenyl)-methanone], in that order: 177 nM and 600 nM.
For `Cc1ccc(-n2nccn2)c(C(=O)N2CCC[C@H]2c2nc(-c3ccccc3Cl)no2)c1` [compound 21], in that order: 19 nM and 339 nM.
For `Cc1ccc(-n2nccn2)c(C(=O)N2CCC[C@H]2c2nc(-c3ccc4c(c3)OCO4)no2)c1` [compound 22, [(S)-2-(3-Benzo[1,3]dioxol-5-yl-[1,2,4]oxadiazol-5-yl)-pyrrolidin-1-yl]-(5-methyl-2-[1,2,3]triazol-2-yl-phenyl)-methanone], in that order: 322 nM and 942 nM.
Consider `Cc1ccc(-n2nccn2)c(C(=O)N2CCC[C@H]2c2nc(-c3cccc(Cl)c3C)no2)c1` [compound 23], for which the IC50 on human orexin-2 receptor (setting [1]) worked out at 7 nM; on orexin-1 (setting [2]), 40 nM.
For `Cc1ccc(-n2nccn2)c(C(=O)N2CCC[C@H]2c2nc(-c3c(C)cccc3Cl)no2)c1` [compound 24], in that order: 104 nM and 472 nM.
In the case of `CCc1ccccc1-c1noc([C@@H]2CCCN2C(=O)c2cc(C)ccc2-n2nccn2)n1` [compound 25, {(S)-2-[3-(2-Ethyl-phenyl)-[1,2,4]oxadiazol-5-yl]-pyrrolidin-1-yl}-(5-methyl-2-[1,2,3]triazol-2-yl-phenyl)-methanone], the concentration for half-maximal inhibition (IC50) at human orexin-2 receptor (setting [1]) is 11 nM; at orexin-1 (setting [2]), 19 nM.
`Cc1ccc(-n2nccn2)c(C(=O)N2CCC[C@H]2c2nc(-c3cccc(F)c3C)no2)c1` [compound 26, {(S)-2-[3-(3-Fluoro-2-methyl-phenyl)-[1,2,4]oxadiazol-5-yl]-pyrrolidin-1-yl}-(5-methyl-2-[1,2,3]triazol-2-yl-phenyl)-methanone]: the IC50 turned out to be 5 nM at human orexin-2 receptor (setting [1]) and 77 nM at orexin-1 (setting [2]).
Consider `Cc1ccc(-n2nccn2)c(C(=O)N2CCC[C@H]2c2nc(-c3cccc(C)c3Cl)no2)c1` [compound 27], for which the half-inhibitory concentration (IC50) is 8 nM on human orexin-2 receptor and 125 nM at orexin-1 (setting [2]).
Regarding `Cc1ccc(-n2nccn2)c(C(=O)N2CCC[C@H]2c2nc(-c3cccnc3Cl)no2)c1` [compound 28], the 50% inhibitory concentration (IC50) worked out at 33 nM on human orexin-2 receptor (setting [1]) and 2610 nM on orexin-1.
On to `Cc1ccc(-n2nccn2)c(C(=O)N2CCC[C@H]2c2nc(-c3ccccc3C(F)(F)F)no2)c1` [compound 29, (5-Methyl-2-[1,2,3]triazol-2-yl-phenyl)-{(S)-2-[3-(2-trifluoromethyl-phenyl)-[1,2,4]oxadiazol-5-yl]-pyrrolidin-1-yl}-methanone], for which the IC50 turned out to be 39 nM at human orexin-2 receptor (setting [1]) and 249 nM at orexin-1 (setting [2]).
As for `Cc1ccc(-n2nccn2)c(C(=O)N2CCC[C@H]2c2nc(-c3ccccc3O)no2)c1` [compound 31, {(S)-2-[3-(2-Hydroxy-phenyl)-[1,2,4]oxadiazol-5-yl]-pyrrolidin-1-yl}-(5-methyl-2-[1,2,3]triazol-2-yl-phenyl)-methanone], the half-maximal inhibitory concentration (IC50) on human orexin-2 receptor (setting [1]) was 259 nM; at orexin-1 (setting [2]) it was 2910 nM.
For the molecule `COc1cc(-c2noc([C@@H]3CCCN3C(=O)c3cc(C)ccc3-n3nccn3)n2)ccn1` [compound 32, {(S)-2-[3-(2-Methoxy-pyridin-4-yl)-[1,2,4]oxadiazol-5-yl]-pyrrolidin-1-yl}-(5-methyl-2-[1,2,3]triazol-2-yl-phenyl)-methanone], the IC50 at human orexin-2 receptor (setting [1]) is 955 nM; at orexin-1 (setting [2]), 2290 nM.
`Cc1ccc(-n2nccn2)c(C(=O)N2CCC[C@H]2c2nc(-c3ccccc3OC(F)F)no2)c1` [compound 33, {(S)-2-[3-(2-Difluoromethoxy-phenyl)-[1,2,4]oxadiazol-5-yl]-pyrrolidin-1-yl}-(5-methyl-2-[1,2,3]triazol-2-yl-phenyl)-methanone]: the half-maximal inhibitory concentration (IC50) on human orexin-2 receptor (setting [1]) is 9 nM; on orexin-1 (setting [2]), 62 nM.
For `Cc1ccc(-n2nccn2)c(C(=O)N2CCC[C@H]2c2nc(-c3c(C)cncc3C)no2)c1` [compound 37, {(S)-2-[3-(3,5-Dimethyl-pyridin-4-yl)-[1,2,4]oxadiazol-5-yl]-pyrrolidin-1-yl}-(5-methyl-2-[1,2,3]triazol-2-yl-phenyl)-methanone], in that order: 1060 nM and more than 5640 nM.
For `Cc1ccc(-n2nccn2)c(C(=O)N2CCC[C@H]2c2nc(-c3cccc4c3OCCO4)no2)c1` [compound 38, {(S)-2-[3-(2,3-Dihydro-benzo[1,4]dioxin-5-yl)-[1,2,4]oxadiazol-5-yl]-pyrrolidin-1-yl}-(5-methyl-2-[1,2,3]triazol-2-yl-phenyl)-methanone], in that order: 12 nM and 23 nM.
On to `Cc1ccc(-n2nccn2)c(C(=O)N2CCC[C@H]2c2nc(-c3cccc4[nH]ccc34)no2)c1` [compound 39, {(S)-2-[3-(1H-Indol-4-yl)-[1,2,4]oxadiazol-5-yl]-pyrrolidin-1-yl}-(5-methyl-2-[1,2,3]triazol-2-yl-phenyl)-methanone], for which the IC50 amounted to 92 nM on human orexin-2 receptor (setting [1]) and 658 nM at orexin-1 (setting [2]).
For `CCOc1ccccc1-c1noc([C@@H]2CCCN2C(=O)c2cc(C)ccc2-n2nccn2)n1` [compound 40, {(S)-2-[3-(2-Ethoxy-phenyl)-[1,2,4]oxadiazol-5-yl]-pyrrolidin-1-yl}-(5-methyl-2-[1,2,3]triazol-2-yl-phenyl)-methanone], in that order: 4 nM and 22 nM.
For `CCOc1ncccc1-c1noc([C@@H]2CCCN2C(=O)c2cc(C)ccc2-n2nccn2)n1` [compound 41, {(S)-2-[3-(2-Ethoxy-pyridin-3-yl)-[1,2,4]oxadiazol-5-yl]-pyrrolidin-1-yl}-(5-methyl-2-[1,2,3]triazol-2-yl-phenyl)-methanone], in that order: 7 nM and 22 nM.
Consider `COc1ccc2[nH]cc(-c3noc([C@@H]4CCCN4C(=O)c4cc(C)ccc4-n4nccn4)n3)c2c1` [compound 42, {(S)-2-[3-(5-Methoxy-1H-indol-3-yl)-[1,2,4]oxadiazol-5-yl]-pyrrolidin-1-yl}-(5-methyl-2-[1,2,3]triazol-2-yl-phenyl)-methanone], for which the IC50 worked out at 108 nM on human orexin-2 receptor (setting [1]) and 112 nM on orexin-1 (setting [2]).
For `Cc1ccc(-n2nccn2)c(C(=O)N2CCC[C@H]2c2nc(-c3cccc(OC(F)F)c3)no2)c1` [compound 43, {(S)-2-[3-(3-Difluoromethoxy-phenyl)-[1,2,4]oxadiazol-5-yl]-pyrrolidin-1-yl}-(5-methyl-2-[1,2,3]triazol-2-yl-phenyl)-methanone], in that order: 23 nM and 284 nM.

As usually defined, the IC50 is the concentration at which inhibition is half-maximal.
